Reference: the NIST ThermoML archive (doi:10.1016/j.jct.2017.10.004)

How the values were obtained:
[1] = 100 kPa, Liquid; for electrical conductivity: Alternating current cell with electrodes; for viscosity: Capillary tube (Ostwald / Ubbelohde) method; for mass density: Vibrating tube method
[2] = xn = mol fraction of the nth substance listed; conditions: 100 kPa, Liquid, x2 = 0; for viscosity: Capillary tube (Ostwald / Ubbelohde) method; for mass density: Vibrating tube method

Cn1cc[n+](C)c1.O=S(=O)([N-]S(=O)(=O)C(F)(F)F)C(F)(F)F [1,3-dimethylimidazolium bis((trifluoromethyl)sulfonyl)amide]
[1]
Conditions	electrical conductivity [S/m]	mass density [kg/m3]	viscosity [mPa·s]
298.15 K	0.774	1575.42	39.43
303.15 K	0.915	1570.25	32.51
308.15 K	1.06	1565.01	27.47
313.15 K	1.2	1559.73	23.43
318.15 K	1.35	1554.49	20.25
323.15 K	1.51	1549.34	17.72

O=C1CCCO1 [γ-butyrolactone] + Cn1cc[n+](C)c1.O=S(=O)([N-]S(=O)(=O)C(F)(F)F)C(F)(F)F
[2]
Conditions	mass density [kg/m3]	viscosity [mPa·s]
298.15 K	1124.59	1.71
303.15 K	1119.68	1.58
308.15 K	1114.78	1.47
313.15 K	1109.87	1.37
318.15 K	1104.96	1.28
323.15 K	1100.05	1.2
